From patent US20070049564A1 (Wyeth, priority 2005, published 2007)
Read-outs that look alike come from different tables or passages of the source.

Legend:
Experiment in all cases: MIC, broth microdilution
E. coli GC 4559 = settings: Escherichia coli
E. faecium GC 4556 = settings: Enterococcus faecium
Description: (§1) Antimicrobial susceptibility testing. The in vitro activities of the antibiotics are determined by the broth microdilution method as recommended by the National Committee for Clinical Laboratory Standards (NCCLS) (1). Mueller-Hinton II broth (MHBII)(BBL Cockeysville, Md.) is the medium employed in the testing procedures. Microtiter plates containing serial dilutions of each antimicrobial agent are inoculated with each organism to yield the appropriate density (10^5 CFU/ml) in a 100 μl final volume. The plates are incubated for 18-22 hours at 35° C. in ambient air.
Representative compounds were first incubated in mouse serum for an hour prior to the in vitro testing against a panel of selected gram-positive and gram-negative bacteria strains. All compounds were also pre-incubated in water for an hour prior to testing as control. Representative compounds of Formula I were incubated in human serum prior to MIC determination.

S. epidermidis GC 4935 = settings: Staphylococcus epidermidis
E. coli GC 2235 = settings: Escherichia coli
P. aeruginosa GC 2214 = settings: Pseudomonas aeruginosa
E. coli GC 2270 = settings: Escherichia coli
S. aureus GC 1079 = settings: Staphylococcus aureus
E. coli GC 2233 = settings: Escherichia coli
E. faecalis GC 2242 = settings: Enterococcus faecalis
S. pneumoniae+ GC 4465 = settings: Streptococcus pneumoniae
Description: as §1
(§2) Representative compounds were first incubated in mouse serum for an hour prior to the in vitro testing against a panel of selected gram-positive and gram-negative bacteria strains. All compounds were also pre-incubated in water for an hour prior to testing as control.

S. aureus GC 2216 = settings: Staphylococcus aureus
E. coli GC 2236 = settings: Escherichia coli
E. coli GC 1073 = settings: Escherichia coli
S. aureus GC 6335 = settings: Staphylococcus aureus
S. pyogenes GC 4563 = settings: Streptococcus pyogenes
E. coli GC 2271 = settings: Escherichia coli
c. albicans GC 3066 = tested on: c. albicans GC 3066
E. coli GC 2234 = settings: Escherichia coli
Description: as §1, §2

S. aureus GC 1131 = settings: Staphylococcus aureus
Description: as §1, §2

Cc1cc(C)cc(C(=O)OCOC(=O)N(CC(=O)Nc2cc(N(C)C)c3c(c2O)C(=O)C2=C(O)[C@]4(O)C(=O)C(C(N)=O)=C(O)[C@@H](N(C)C)[C@@H]4C[C@@H]2C3)C(C)(C)C)c1 [Example 51]
4 mg/L: MIC (S. epidermidis GC 4935; GC4935, read-out: MINIMAL INHIBITORY CONCENTRATION MIC, Water) | MIC (E. faecalis GC 2242; GC2242, read-out: MINIMAL INHIBITORY CONCENTRATION MIC, Human Serum)
> 64 mg/L: MIC (E. coli GC 4559; GC4559, read-out: MINIMAL INHIBITORY CONCENTRATION MIC, Water) | MIC (E. coli GC 2235; GC2235, read-out: MINIMAL INHIBITORY CONCENTRATION MIC, Water) | MIC (P. aeruginosa GC 2214; GC2214, read-out: MINIMAL INHIBITORY CONCENTRATION MIC, Human Serum) | MIC (P. aeruginosa GC 2214; GC2214, read-out: MINIMAL INHIBITORY CONCENTRATION MIC, Water) | MIC (E. coli GC 2270; GC2270, read-out: MINIMAL INHIBITORY CONCENTRATION MIC, Water) | MIC (E. coli GC 2233; GC2233, read-out: MINIMAL INHIBITORY CONCENTRATION MIC, Water) | MIC (E. coli GC 2236; GC2236, read-out: MINIMAL INHIBITORY CONCENTRATION MIC, Water) | MIC (E. coli GC 1073; GC1073, read-out: MINIMAL INHIBITORY CONCENTRATION MIC, Water) | MIC (E. coli GC 2271; GC2271, read-out: MINIMAL INHIBITORY CONCENTRATION MIC, Water) | MIC (c. albicans GC 3066; Candida albicans, GC3066, read-out: MINIMAL INHIBITORY CONCENTRATION MIC) | MIC (E. coli GC 2234; GC2234, read-out: MINIMAL INHIBITORY CONCENTRATION MIC, Water)
64 mg/L: MIC (P. aeruginosa GC 2214; GC2214, read-out: MINIMAL INHIBITORY CONCENTRATION MIC, Mouse Serum) | MIC (E. coli GC 1073; GC1073, read-out: MINIMAL INHIBITORY CONCENTRATION MIC, Human Serum)
32 mg/L: MIC (E. coli GC 4559; GC4559, read-out: MINIMAL INHIBITORY CONCENTRATION MIC, Human Serum) | MIC (E. coli GC 2235; GC2235, read-out: MINIMAL INHIBITORY CONCENTRATION MIC, Human Serum) | MIC (E. coli GC 2270; GC2270, read-out: MINIMAL INHIBITORY CONCENTRATION MIC, Human Serum) | MIC (E. coli GC 2233; GC2233, read-out: MINIMAL INHIBITORY CONCENTRATION MIC, Human Serum) | MIC (E. coli GC 2236; GC2236, read-out: MINIMAL INHIBITORY CONCENTRATION MIC, Human Serum) | MIC (E. coli GC 2271; GC2271, read-out: MINIMAL INHIBITORY CONCENTRATION MIC, Human Serum) | MIC (E. coli GC 2234; GC2234, read-out: MINIMAL INHIBITORY CONCENTRATION MIC, Human Serum)
2 mg/L: MIC (E. coli GC 4559; GC4559, read-out: MINIMAL INHIBITORY CONCENTRATION MIC, Mouse Serum) | MIC (E. faecium GC 4556; GC4556, read-out: MINIMAL INHIBITORY CONCENTRATION MIC, Mouse Serum) | MIC (S. epidermidis GC 4935; GC4935, read-out: MINIMAL INHIBITORY CONCENTRATION MIC, Human Serum) | MIC (S. epidermidis GC 4935; GC4935, read-out: MINIMAL INHIBITORY CONCENTRATION MIC, Mouse Serum) | MIC (S. aureus GC 1079; GC1079, read-out: MINIMAL INHIBITORY CONCENTRATION MIC, Water) | MIC (E. coli GC 2233; GC2233, read-out: MINIMAL INHIBITORY CONCENTRATION MIC, Mouse Serum) | MIC (E. faecalis GC 2242; GC2242, read-out: MINIMAL INHIBITORY CONCENTRATION MIC, Mouse Serum) | MIC (S. pneumoniae+ GC 4465; read-out: MINIMAL INHIBITORY CONCENTRATION MIC, Human Serum) | MIC (E. coli GC 2236; GC2236, read-out: MINIMAL INHIBITORY CONCENTRATION MIC, Mouse Serum) | MIC (E. coli GC 1073; GC1073, read-out: MINIMAL INHIBITORY CONCENTRATION MIC, Mouse Serum) | MIC (S. pyogenes GC 4563; GC4563, read-out: MINIMAL INHIBITORY CONCENTRATION MIC, Human Serum) | MIC (S. pyogenes GC 4563; GC4563, read-out: MINIMAL INHIBITORY CONCENTRATION MIC, Water)
>64 UG/ML: MINIMAL INHIBITORY CONCENTRATION MIC (c. albicans GC 3066; Human Serum) | MINIMAL INHIBITORY CONCENTRATION MIC (c. albicans GC 3066; Mouse Serum)
1 mg/L: MIC (E. coli GC 2235; GC2235, read-out: MINIMAL INHIBITORY CONCENTRATION MIC, Mouse Serum) | MIC (E. coli GC 2270; GC2270, read-out: MINIMAL INHIBITORY CONCENTRATION MIC, Mouse Serum) | MIC (S. aureus GC 1079; GC1079, read-out: MINIMAL INHIBITORY CONCENTRATION MIC, Human Serum) | MIC (S. pneumoniae+ GC 4465; read-out: MINIMAL INHIBITORY CONCENTRATION MIC, Mouse Serum) | MIC (S. pneumoniae+ GC 4465; read-out: MINIMAL INHIBITORY CONCENTRATION MIC, Water) | MIC (S. aureus GC 2216; GC2216, read-out: MINIMAL INHIBITORY CONCENTRATION MIC, Water) | MIC (S. aureus GC 6335; GC6335, read-out: MINIMAL INHIBITORY CONCENTRATION MIC, Water) | MIC (E. coli GC 2271; GC2271, read-out: MINIMAL INHIBITORY CONCENTRATION MIC, Mouse Serum) | MIC (E. coli GC 2234; GC2234, read-out: MINIMAL INHIBITORY CONCENTRATION MIC, Mouse Serum) | MIC (S. aureus GC 1131; GC1131, read-out: MINIMAL INHIBITORY CONCENTRATION MIC, Water)
0.5 mg/L: MIC (S. aureus GC 1079; GC1079, read-out: MINIMAL INHIBITORY CONCENTRATION MIC, Mouse Serum) | MIC (S. aureus GC 2216; GC2216, read-out: MINIMAL INHIBITORY CONCENTRATION MIC, Human Serum) | MIC (S. aureus GC 2216; GC2216, read-out: MINIMAL INHIBITORY CONCENTRATION MIC, Mouse Serum) | MIC (S. aureus GC 6335; GC6335, read-out: MINIMAL INHIBITORY CONCENTRATION MIC, Human Serum) | MIC (S. aureus GC 6335; GC6335, read-out: MINIMAL INHIBITORY CONCENTRATION MIC, Mouse Serum) | MIC (S. pyogenes GC 4563; GC4563, read-out: MINIMAL INHIBITORY CONCENTRATION MIC, Mouse Serum) | MIC (S. aureus GC 1131; GC1131, read-out: MINIMAL INHIBITORY CONCENTRATION MIC, Human Serum) | MIC (S. aureus GC 1131; GC1131, read-out: MINIMAL INHIBITORY CONCENTRATION MIC, Mouse Serum)
8 mg/L: MIC (E. faecium GC 4556; GC4556, read-out: MINIMAL INHIBITORY CONCENTRATION MIC, Human Serum) | MIC (E. faecium GC 4556; GC4556, read-out: MINIMAL INHIBITORY CONCENTRATION MIC, Water) | MIC (E. faecalis GC 2242; GC2242, read-out: MINIMAL INHIBITORY CONCENTRATION MIC, Water)
